Data: patent US6699676B1, “Uses of ouabain and ouabain-like molecules in apoptosis related pathologies” (Corporation du Centre de Recherche du Centre, Hospitalier …, priority 1999, dated 2004)

Experiments:
Jurkat cells = assay: Intracellular Na+ and K+ content in Jurkat cells; assay type: cell-based, human; conditions: for Intracellular cations K^+i / Intracellular cations Na^+i: ouabain-treated Jurkat cells, 1 mM, 6 hours
Experimental: FIG. 1. Kinetics of modulation of intracellular Na^+ (1, 2) and K^+ (3, 4) content by ouabain in VSMC-E1A (1, 3) and Jurkat cells (2, 4). Cells were preincubated for 24 hours in the presence of 10% calf serum in control medium consisting of 91 mM NaCl, 5 mM KCl, 0.9 mM NaH2PO4, 44 mM NaHCO3, 1.8 mM CaCl2, 0.8 mM MgCl2, 33 mM HEPES and 5 mM D-glucose (pH 7.4) with 2 μCi/ml of ^22Na or 0.5 μCi/ml ^86Rb, and 1 mM ouabain was added at the time interval indicated by the arrow. At specific time-points, intracellular Na^+ and K content + was measured as described in Experimental Procedures. Mean values±S.E. obtained in experiments performed in quadruplicate (VSMC-E1A) or triplicate (Jurkat cells) are given.
To estimate chromatin cleavage, cells were incubated for 2 hours in the presence of 10% calf serum in the control solution (DMEM, [Na^+]=137 mM; [K^+]=5 mM—line 1) or under equimolar substitution of NaCl with KCl ([Na^+]=14 mM; [K^+]=128 mM—line 2) with or without 1 mM ouabain and then for an additional 7 hours at the same media with or without 100 ng/ml Fas ligand (Fas-L). Intracellular Na^+ and K^+ content was measured as steady-state distribution of isotopes after 24 hours preincubation of cells in control Na^+-enriched solution containing 0.5 μCi/ml ^86Rb or 2 μCi/ml ^22Na, and an additional 6 hours incubation in Na^+—(line 1) or K^+—(line 2) enriched medium containing 10% calf serum, isotopes with the same specific activity with or without 1 mM ouabain. For more details see Experimental Procedures. Mean values±S.E. obtained in experiments performed in triplicate are given. ★, #p<0.01 and 0.001 compared to ouabain-untreated cells.
Intracellular Na^+ and K^+ content. The intracellular content of exchangeable Na^+ and K^+ was measured as steady-state distribution of extra- and intracellular ^22Na and ^86Rb, as described previously in detail (22). Briefly, to establish the steady-state distribution of isotopes, VSMC growing in 12× (^22Na) or 24× (^86Rb) well plates or ˜10^6 Jurkat cells in suspension were preincubated for 24 hours in DMEM containing 10% calf serum and 0.5 μCi/ml ^86RbCl or 2 μCi/ml ^22NaCl and then treated in media with compositions shown in FIG. 1 and Tables 3 and 4 and with the same specific radioactivity. At the end of incubation, the VSMC were transferred on ice, washed 4 times with 2 ml of ice-cold medium W, containing 100 mM MgCl2 and 10 mM HEPES-tris buffer (pH 7.4), and lysed with SDS/EDTA mixture. One ml of Jurkat cell suspension was applied on a Whatman type C filter with the cells being washed with 3×5 ml aliquots of ice-cold medium W under negative pressure of 20-30 mm Hg. Radioactivity of the incubation medium and cell lysate was measured with a liquid scintillation analyzer and intracellular cation content was determined as A/am, where A was the radioactivity of the samples (cpm), a was the specific radioactivity of Na^+ and K^+(^86Rb) in the medium (cpm/nmol), and m was the protein content determined by Lowry methods.

VSMC-MYC = assay: Chromatin cleavage assay in VSMC-MYC; assay type: cell-based, rat; conditions: 1 mM ouabain, 1 hr preincubation, 6 hours
Experimental: Cells were incubated in K^+-containing medium consisting of 91 mM NaCl, 5 mM KCl, 0.9 mM NaH2PO4, 44 mM NaHCO3, 1.8 mM CaCl2, 0.8 mM MgCl2, 33 mM HEPES and 5 mM D-glucose (pH 7.4) (lines 1 and 2) or in K^+-depleted medium (equimolar substitution of KCl by NaCl, line 3) with or without 10% calf serum (CS) and 1 mM ouabain as indicated. In experiments with VSMC-MYC and VSMC-E1A, cells were preincubated for 1 hr with ouabain or with K^+-depleted medium in the presence of CS and then subjected to treatment with serum-free media. After 24 hours (VSMC) or 6 hours (VSMC-MYC and VSMC-E1A), the content of chromatin fragments was measured as described in Experimental Procedures. […]
Chromatin cleavage assay. […] After 15 min, the cell lysate was transferred to Ependorf tubes, sedimented (12,000 rpm, 10 mm), and 1 ml of supernatant was transferred for the measurement of radioactivity (A1t). The remaining radioactivity from pellets and wells was extracted with 0.5 ml of 1% SDS/4 mM EDTA mixture, combined and counted (A2). Chromatin cleavage was quantified as the content of chromatin fragments normalized by total content of [^3H]-labeled DNA in accordance with the equation [1.5×(A1t−A1o)/(A2+A1t−1.5A1o)]×100% where A1o is the value of A1t before induction of apoptosis. […]

## C[C@@H]1O[C@@H](O[C@H]2C[C@@H](O)[C@]3(CO)[C@H]4[C@H](O)C[C@]5(C)[C@@H](C6=CC(=O)OC6)CC[C@]5(O)[C@@H]4CC[C@]3(O)C2)[C@H](O)[C@H](O)[C@H]1O [Ouabain, 1β,3β,5,11α,14,19-hexahydroxycard 20 [22]-enolide 3-[6-deoxy-α-L-mannopyrano-sidel]]
Jurkat cells; ouabain treated Jurkat lymphocytes, 1 mM (FIG. 1, curve 2)
  increase of the content of intracellular Na^+: 10 fold
Jurkat cells; medium [Na+]o=14, [K+]o=128 mM
  Intracellular cations K^+i: 498 nmol/mg protein
  Intracellular cations Na^+i: 204 nmol/mg protein
Jurkat cells; medium [Na+]o=137, [K+]o=5 mM
  Intracellular cations K^+i: 107 nmol/mg protein
  Intracellular cations Na^+i: 1137 nmol/mg protein
VSMC-MYC; 10% CS
  Chromatin fragments (%): 1.4 ± 0.3%
VSMC-MYC; CS-free
  Chromatin fragments (%): 3.1 ± 0.4 %
